Laboratory results published in paper PMC10873978, “Novel tetrahydroisoquinolines as DHFR and CDK2 inhibitors: synthesis, characterization, anticancer activity and antioxidant properties” (BMC Chemistry, 2024).

What was measured:
A549 cell line = test: In vitro cytotoxic activity, MTT method, A549; settings: for IC50: Homo sapiens, read-out: IC50 ± SD
Method: (§1) Cell lines: The in vitro human breast cancerous cell line (MCF7), lung cancerous cell lines (A549) and normal cell lines were purchased from Serum and Vaccine formulation in Cairo-Egypt.
(§2) In vitro cytotoxic activity of all synthesized compounds against two human breast cell line (MCF7) and lung cell lines (A549) was evaluated according to the MTT method. Firstly, Growth the cell line medium in 96 well tissue culture plate was injected with 10^5 cells/mL (100 uL/plate well) of the cell line and incubated at 37 °C for 24 h to develop a monolayer sheet then the formed growth medium was poured from 96 well microtiter plates after the confluent sheet of cells. […] Secondly, add 0.1 mL of each concentration tetrahydroisoquinoline sample to each plate. The plates were incubated at 37 °C. Thirdly MTT solution (5 mg/mL in PBS) is prepared. Add 20 µL of MTT solution to each well plates. And shaking in 150 rpm for 5 min, to mix the MTT into the media. Then incubate at (37 °C, 5% CO2) for 1–5 h. Finally read the optical density at 560 nm and subtract background at 620 nm.
(§3) In this work, doxorubicin was used as a positive control drug for comparison with the synthesized compounds under the same experimental conditions.

MCF7 cell line = test: In vitro cytotoxic activity, MTT method, MCF7; format: cell-based, human; settings: for IC50: Homo sapiens, MCF7, MCF7 cell line, MTT
Method: as §1, §2, §3

[1] = DPPH scavenging antioxidant activity
Method: The antioxidant activity of ten compounds was determined using DPPH [32–34]. A solution 1: prepared by dissolving DPPH (0.002 g) in ethanol (50 mL etnanol). Solution 2: prepared by dissolving different weights 0.05, 0.01 g of each sample in 1 mL of DMSO then take 10 µL of each sample solution with 1 mL ethanol. Then mix 1 mL of solution 1 with 1 mL of solution 2 then vortex the resulting mixture in the dark for about 30 min. The absorbance of the mixture was measured by spectrophotometer at λmax = 517 nm against blank 1 mL absolute ethanol and compared to the ascorbic acid (Vitamin C).
Ten newly synthesized compounds were studied as in vitro antioxidants by measuring of their DPPH scavenging activity which is represented as a percentage % [32]^. Results are represented by mean ± SD of three replicates. […] The higher dose concentration of 0.05 μg/mL represents higher antioxidant activity. […] The high antioxidant activity is referred to the presence of C=O, NH2, and OH groups like ascorbic acid which can be easily oxidized and reduced and can be used as antioxidant drugs. (Fig. 8 and Table 9).

Eef2 kinase = Eef2 kinase (Homo sapiens, UniProt O00418); test: Eef2 kinase inhibition; format: biochemical

Q: For `CC(=O)c1ccc(NC(=O)CSc2nc(C)c3c(c2C#N)CC(C)(O)C(C(C)=O)C3c2ccc(N(C)C)cc2)cc1` (stereo not shown) [Compound 7d, 2-[(7-Acetyl-4-cyano-1,6-dimethyl-6-hydroxy-8-(4-N,N-dimethylamino-phenyl)-5,6,7,8-tetrahydroisoquinolin-3-yl)thio]-N-(4-acetylphenyl)acetamide], which Toxicity % (A549 cell line; A549, Conc. 0.04875 µMol) is on record?
A: 1.982%

Q: What about the Viability % (A549 cell line; A549, Conc. 0.04875 µMol) of the same compound?
A: 98.02%

Q: What about the Toxicity % (A549 cell line; A549, Conc. 0.0975 µMol) of the same compound?
A: 2.4569%

Q: What about the Viability % (A549 cell line; A549, Conc. 0.0975 µMol) of the same compound?
A: 97.5431%

Q: What about the Toxicity % (A549 cell line; A549, Conc. 0.195 µMol) of the same compound?
A: 3.708%

Q: And the Viability % (A549 cell line; A549, Conc. 0.195 µMol)?
A: 96.29%

Q: What about the Toxicity % (A549 cell line; A549, Conc. 0.391 µMol) of the same compound?
A: 36.8%

Q: And the Viability % (A549 cell line; A549, Conc. 0.391 µMol)?
A: 63.2%

Q: And the Toxicity % (A549 cell line; A549, Conc. 0.781 µMol)?
A: 53.89%

Q: And the Viability % (A549 cell line; A549, Conc. 0.781 µMol)?
A: 46.11%

Q: And the Toxicity % (A549 cell line; A549, Conc. 1.562 µMol)?
A: 70.45%

Q: And the Viability % (A549 cell line; A549, Conc. 1.562 µMol)?
A: 29.55%

Q: What about the Toxicity % (A549 cell line; A549, Conc. 3.125 µMol) of the same compound?
A: 77.08%

Q: And the Viability % (A549 cell line; A549, Conc. 3.125 µMol)?
A: 22.92%

Q: What about the Toxicity % (A549 cell line; A549, Conc. 6.25 µMol) of the same compound?
A: 86.79%

Q: And the Viability % (A549 cell line; A549, Conc. 6.25 µMol)?
A: 13.21%

Q: And the Toxicity % (A549 cell line; A549, Conc. 12.5 µMol)?
A: 92.98%

Q: What about the Viability % (A549 cell line; A549, Conc. 12.5 µMol) of the same compound?
A: 7.022%

Q: What about the Toxicity % (A549 cell line; A549, Conc. 25 µMol) of the same compound?
A: 96.61%

Q: What about the Viability % (A549 cell line; A549, Conc. 25 µMol) of the same compound?
A: 3.393%

Q: What about the IC50 (A549 cell line) of the same compound?
A: 0.446 ± 0.004 µM

Q: What about the IC50 (MCF7 cell line) of the same compound?
A: 0.495 ± 0.002 µM

Q: What about the Toxicity % (MCF7 cell line; MCF7, 0.0487 µMol) of the same compound?
A: 1.8855%

Q: And the Viability % (MCF7 cell line; MCF7, 0.0487 µMol)?
A: 98.2255%

Q: What about the Toxicity % (MCF7 cell line; MCF7, 0.0975 µMol) of the same compound?
A: 3.5566%

Q: What about the Viability % (MCF7 cell line; MCF7, 0.0975 µMol) of the same compound?
A: 96.5544%

Q: And the Toxicity % (MCF7 cell line; MCF7, 0.195 µMol)?
A: 5.106%

Q: And the Viability % (MCF7 cell line; MCF7, 0.195 µMol)?
A: 94.89%

Q: What about the Toxicity % (MCF7 cell line; MCF7, 0.391 µMol) of the same compound?
A: 28.72%

Q: What about the Viability % (MCF7 cell line; MCF7, 0.391 µMol) of the same compound?
A: 71.28%

Q: What about the Toxicity % (MCF7 cell line; MCF7, 0.781 µMol) of the same compound?
A: 52.53%

Q: What about the Viability % (MCF7 cell line; MCF7, 0.781 µMol) of the same compound?
A: 47.47%

Q: What about the Toxicity % (MCF7 cell line; MCF7, 1.562 µMol) of the same compound?
A: 65.69%

Q: And the Viability % (MCF7 cell line; MCF7, 1.562 µMol)?
A: 34.31%

Q: And the Toxicity % (MCF7 cell line; MCF7, 3.125 µMol)?
A: 76.63%

Q: What about the Viability % (MCF7 cell line; MCF7, 3.125 µMol) of the same compound?
A: 23.37%

Q: And the Toxicity % (MCF7 cell line; MCF7, 6.25 µMol)?
A: 94.04%

Q: And the Viability % (MCF7 cell line; MCF7, 6.25 µMol)?
A: 5.964%

Q: What about the Toxicity % (MCF7 cell line; MCF7, 12.5 µMol) of the same compound?
A: 96.65%

Q: And the Viability % (MCF7 cell line; MCF7, 12.5 µMol)?
A: 3.35%

Q: What about the Toxicity % (MCF7 cell line; MCF7, 25 µMol) of the same compound?
A: 96.73%

Q: And the Viability % (MCF7 cell line; MCF7, 25 µMol)?
A: 3.268%

Q: What about the “DPPH scavenging, inhibition (%)” value ([1]; 0.01 µg/mL) of the same compound?
A: 48.08 ± 0.87%

Q: And the “DPPH scavenging, inhibition (%)” value ([1]; 0.05 µg/mL)?
A: 69.73 ± 0.73%

Q: Which Toxicity % (A549 cell line; A549, Conc. 0.04875 µMol) does the source give for `CC(=O)C1C(c2ccc(N(C)C)cc2)c2c(C)nc3sc(C(=O)Nc4ccccc4)c(N)c3c2CC1(C)O` (stereo not shown) [Compound 8a, 7-Acetyl-1-amino-5,8-dimethyl-8-hydroxy-6-(4-N,N-dimethylaminophenyl)-N-phenyl-6,7,8,9-tetrahydrothieno[2,3-c]isoquinoline-2-carboxamide] here?
A: 3.135%

Q: And the Toxicity % (A549 cell line; A549, Conc. 0.0975 µMol)?
A: 3.679%

Q: And the Toxicity % (A549 cell line; A549, Conc. 0.195 µMol)?
A: 4.221%

Q: And the Viability % (A549 cell line; A549, Conc. 0.195 µMol)?
A: 95.78%

Q: What about the Toxicity % (A549 cell line; A549, Conc. 0.391 µMol) of the same compound?
A: 10.77%

Q: And the Viability % (A549 cell line; A549, Conc. 0.391 µMol)?
A: 89.23%

Q: And the Toxicity % (A549 cell line; A549, Conc. 0.781 µMol)?
A: 39.61%

Q: What about the Viability % (A549 cell line; A549, Conc. 0.781 µMol) of the same compound?
A: 60.39%

Q: What about the Toxicity % (A549 cell line; A549, Conc. 1.562 µMol) of the same compound?
A: 53.57%

Q: What about the Viability % (A549 cell line; A549, Conc. 1.562 µMol) of the same compound?
A: 46.43%

Q: What about the Toxicity % (A549 cell line; A549, Conc. 3.125 µMol) of the same compound?
A: 74.67%

Q: What about the Viability % (A549 cell line; A549, Conc. 3.125 µMol) of the same compound?
A: 25.33%

Q: And the Toxicity % (A549 cell line; A549, Conc. 6.25 µMol)?
A: 88.24%

Q: And the Viability % (A549 cell line; A549, Conc. 6.25 µMol)?
A: 11.76%

Q: What about the Toxicity % (A549 cell line; A549, Conc. 12.5 µMol) of the same compound?
A: 96.69%

Q: And the Viability % (A549 cell line; A549, Conc. 12.5 µMol)?
A: 3.314%

Q: What about the Toxicity % (A549 cell line; A549, Conc. 25 µMol) of the same compound?
A: 97.95%

Q: And the Viability % (A549 cell line; A549, Conc. 25 µMol)?
A: 2.051%

Q: And the IC50 (A549 cell line)?
A: 1.045 ± 0.006 µM

Q: What about the IC50 (MCF7 cell line) of the same compound?
A: 0.872 ± 0.003 µM

Q: What about the Toxicity % (MCF7 cell line; MCF7, Conc. 0.0487 µMol) of the same compound?
A: -1.567%

Q: What about the Viability % (MCF7 cell line; MCF7, Conc. 0.0487 µMol) of the same compound?
A: 101.5%

Q: And the Toxicity % (MCF7 cell line; MCF7, Conc. 0.0975 µMol)?
A: -0.5332%

Q: What about the Viability % (MCF7 cell line; MCF7, Conc. 0.0975 µMol) of the same compound?
A: 100.6%

Q: What about the Toxicity % (MCF7 cell line; MCF7, Conc. 0.195 µMol) of the same compound?
A: -0.4085%

Q: And the Viability % (MCF7 cell line; MCF7, Conc. 0.195 µMol)?
A: 100.4%

Q: And the Toxicity % (MCF7 cell line; MCF7, Conc. 0.391 µMol)?
A: 8.047%

Q: And the Viability % (MCF7 cell line; MCF7, Conc. 0.391 µMol)?
A: 91.95%

Q: And the Toxicity % (MCF7 cell line; MCF7, Conc. 0.781 µMol)?
A: 34.56%

Q: What about the Viability % (MCF7 cell line; MCF7, Conc. 0.781 µMol) of the same compound?
A: 65.44%

Q: And the Toxicity % (MCF7 cell line; MCF7, Conc. 1.562 µMol)?
A: 65.28%

Q: And the Viability % (MCF7 cell line; MCF7, Conc. 1.562 µMol)?
A: 34.72%

Q: And the Toxicity % (MCF7 cell line; MCF7, Conc. 3.125 µMol)?
A: 87.21%

Q: What about the Viability % (MCF7 cell line; MCF7, Conc. 3.125 µMol) of the same compound?
A: 12.79%

Q: What about the Toxicity % (MCF7 cell line; MCF7, Conc. 6.25 µMol) of the same compound?
A: 94.16%

Q: What about the Viability % (MCF7 cell line; MCF7, Conc. 6.25 µMol) of the same compound?
A: 5.842%

Q: And the Toxicity % (MCF7 cell line; MCF7, Conc. 12.5 µMol)?
A: 96.9%

Q: What about the Viability % (MCF7 cell line; MCF7, Conc. 12.5 µMol) of the same compound?
A: 3.105%

Q: And the Toxicity % (MCF7 cell line; MCF7, Conc. 25 µMol)?
A: 97.43%

Q: What about the Viability % (MCF7 cell line; MCF7, Conc. 25 µMol) of the same compound?
A: 2.574%

Q: And the “DPPH scavenging, inhibition (%)” value ([1]; 0.01 µg/mL)?
A: 14.22 ± 1.32%

Q: What about the “DPPH scavenging, inhibition (%)” value ([1]; 0.05 µg/mL) of the same compound?
A: 23.66 ± 2.12%

Q: Which results are given for `CCCCCCCCCCCCCCCCn1cc[n+](Cc2ccccc2)c1C.[I-]` [NH125, reference compound]?
A: %inh (Eef2 kinase; Eef2, conc 0.01 (log -2)): 20.1%; %inh (Eef2 kinase; Eef2, conc 0.1 (log -1)): 33.9%; %inh (Eef2 kinase; Eef2, conc 1 (log 0)): 62.7%; %inh (Eef2 kinase; Eef2, conc 10 (log 1)): 84.3%; %inh (Eef2 kinase; Eef2, conc 100 (log 2)): 92.6%
